Reference: patent US8076452B2, “Streptavidin-binding peptide” (priority 2002, dated 2011)
Like-named read-outs stand apart in the source and are kept apart here.

Legend:
streptavidin [1] = biological target: T1, streptavidin (Streptomyces avidinii, UniProt P22629); conditions: prior art; read-out: dissociation constant Kd; cited from earlier work
streptavidin [2] = biological target: T1, streptavidin; experiment: Dissociation constant measurement, BiacoreX, NTA sensor chip (first measurements); format: binding; conditions: for Kd: FABP with N-terminal 15-aa peptide, C-terminal His6 on NTA chip
Source text: Using standard methods for this technology, the FAB protein (fatty acid binding protein) (FABP) from bovine hearts was expressed in vitro in a cell-free protein biosynthesis by means of a coupled transcription/translation system. The expressed FAB protein had at the N terminus an additional streptavidin-binding peptide composed of 15 amino acids with different amino acid sequences as fusion partners.
Two binding peptides contain in their amino acid sequence the HPQ motif (motif 1 and 2) described in the prior art, and two of them contain the streptavidin-binding peptide according to SEQ ID NOS: 1-6 according to the invention (motif 3 and 4). In addition, the expressed proteins were provided at the C terminus with a “His-tag” consisting of 6 histidines. The proteins were purified by means of affinity chromatography via Ni2+IDA-agarose using standard methods. It can be seen that with equal length, binding peptides of a sequence according to the invention have a substantially lower dissociation constant than a binding peptide with HPQ motif.
The measurements of the dissociation constant were performed with a BiacoreX system and the sensor chip NTA of the company Biacore. The proteins generated during the expression described in Example 1 were investigated, i.e. FAB proteins, which had at the N terminus a peptide consisting of 15 amino acids as fusion partners and at the C terminus 6 histidines, which were needed for the immobilization on the sensor chip. The binding affinity of the proteins generated during the expression to streptavidin described in Example 1 was measured in the Biacore device according to manufacturer's instructions. The protein to be investigated is on the sensor chip, and a streptavidin solution having a defined concentration is sprayed in. The interaction (binding) between the two molecules is measured by the device and quantified as so-called resonance units (RU). For the measurement, the buffers specified by the manufacturer were used.

streptavidin [3] = biological target: T1, streptavidin; experiment: Binding constants by surface plasmon resonance, BIAcore NTA chip, optimized measuring method; conditions: peptide N-terminal of FABP, C-terminal Gly2-His8, 1,100 RU immobilized
Source text: The information supplied by the substitution analysis was verified by determining the binding constants of different peptides by surface plasmon resonance spectroscopy using a BIAcore device. The measurements were made with the NTA sensor chip of the company BIAcore and by means of the fatty acid-binding protein from bovine hearts (FABP). The FABP served for the immobilization and presentation of the peptide. Further, it was intended to thus simulate the conditions occurring in an affinity chromatography, since the peptide is to be used in the future as an affinity peptide for the purification of proteins. In contrast to the first measurements, where the peptides to be verified replaced the four N terminal amino acids of the FABP, the arrangement of the peptides was this time also N terminal, but they were not part of the FABP. The His-tag necessary for the immobilization was also modified. It was located same as for the first measurements at the C terminus of the FABP, was however extended from six to eight histidines and further spaced by a linker consisting of two glycines from the FABP. Thereby, the immobilization of the ligands could distinctly be improved, and thus the drift of the base line resulting from the washing-off of the ligand could be minimized. For every measurement, an identical amount of the respective FABPs was immobilized, what corresponded to a rise of the base line by 1,100 resonance units (RU). As a reference was used the FABP with the His-tag, but without N terminal binding peptide.
The binding constants obtained with the optimized measuring method were the following: […]

streptavidin [4] = biological target: T1, streptavidin; experiment: Substitution analysis by spot synthesis on cellulose membrane, peroxidase-labeled streptavidin, luminescence; format: binding; conditions: peptide spots on cellulose membrane
Source text: The binding peptide (FAx 3) with the sequence DVEAWLDERVPLVET [SEQ ID NO: 16] was subjected to a substitution analysis, and it was intended thereby to identify a possible minimum motif (=shortened peptide) and examine the effect of individual amino acid exchanges on the binding specificity. In a substitution analysis, peptides are synthesized by means of spot methods (Frank, R. 1992) on a cellulose membrane serving as a solid phase. Every position of the peptide comprising 15 amino acids was systematically replaced by the other 19 L amino acids.
The substitution analysis was incubated with a peroxidase-labeled streptavidin and developed with a luminescence substrate. Thereby it was possible to find out, how far the peptide can be shortened and which amino acids are “conserved” and thus not or only very poorly exchangeable. […] The substitution analysis also indicated positions, where the exchange of the original amino acid by another one could result in an improvement of the streptavidin binding.

StrepTactin-Sepharose = StrepTactin-Sepharose (Streptomyces avidinii, UniProt P22629, E68V/S69T/V71R); experiment: Purification of the FABP fusion protein via StrepTactin-Sepharose affinity column
StrepTactin-Sepharose, sequence (P22629 38-163 E68V/S69T/V71R): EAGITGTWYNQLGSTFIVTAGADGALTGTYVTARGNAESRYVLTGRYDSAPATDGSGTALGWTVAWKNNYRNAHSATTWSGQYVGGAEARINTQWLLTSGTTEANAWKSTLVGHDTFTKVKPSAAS
Source text: (§1) Using standard methods, the FAB protein having at the N terminus an additional peptide consisting of 15 amino acids with the amino acid sequence DVEAWLDERVPLVET [SEQ ID NO: 16] (motif 3) as fusion partners, is expressed in vitro in a cell-free protein biosynthesis by means of a coupled transcription/translation system. For purification of the overexpressed defined protein, the streptavidin was coupled to a solid phase. As a solid phase was used a Sepharose. The expressed FAB protein was then purified using standard methods via a column comprising streptavidin-Sepharose or StrepTactin-Sepharose. For the purification the following buffers were used: washing buffer (100 mM Tris-HCl (pH 8.0), 150 mM NaCl, 1 mM EDTA).
(§2) For the elution of streptavidin, the washing buffer contained 2 mM biotin, and for the elution of StrepTactin, the washing buffer contained 2.5 mM desthiobiotin.
(§3) The percentage distribution of the used defined protein on the various fractions of the affinity chromatography can be taken from Table 3. In Table 3, D represents the application of sample/passage, W washing fraction, and E elution fraction.

streptavidin-Sepharose = streptavidin-Sepharose (Streptomyces avidinii, UniProt P22629); experiment: Purification of the FABP fusion protein via streptavidin-Sepharose affinity column
streptavidin-Sepharose, sequence (P22629 25-183): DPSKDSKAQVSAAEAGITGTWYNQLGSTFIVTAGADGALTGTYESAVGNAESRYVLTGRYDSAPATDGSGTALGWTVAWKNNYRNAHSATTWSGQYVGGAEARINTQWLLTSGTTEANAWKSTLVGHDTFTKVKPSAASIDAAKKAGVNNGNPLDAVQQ
Source text: as §1, §2, §3

T1 sequence (P22629 25-183, species assumed): as the sequence (P22629 25-183) above

Substance: AWRHPQFGG [Strep-tag I]
- Kd (streptavidin [1]): 10000 to 37000 nM

Substance: DLYDIDRNWVGHPQG [motif 1, D L Y D I D R N W V G H P Q G, reference compound]
- Kd (streptavidin [2]): 8000 nM
- resonance units (RU) (streptavidin [2]; Streptavidin conc. 500 nM): 62 RU
- resonance units (RU) (streptavidin [2]; Streptavidin conc. 1 μM): 123 RU
- resonance units (RU) (streptavidin [2]; Streptavidin conc. 2 μM): 233 RU
- resonance units (RU) (streptavidin [2]; Streptavidin conc. 4 μM): 407 RU
- resonance units (RU) (streptavidin [2]; Streptavidin conc. 8 μM): 621 RU
- resonance units (RU) (streptavidin [2]; Streptavidin conc. 16 μM): 779 RU
- resonance units (RU) (streptavidin [2]; Streptavidin conc. 32 μM): 955 RU

Substance: DNYDADLAWDTHPQD [motif 2, D N Y D A D L A W D T H P Q D, reference compound]
- Kd (streptavidin [2]): 70000 nM
- resonance units (RU) (streptavidin [2]; Streptavidin conc. 3 μM): 64 RU
- resonance units (RU) (streptavidin [2]; Streptavidin conc. 6 μM): 98 RU
- resonance units (RU) (streptavidin [2]; Streptavidin conc. 15 μM): 201 RU
- resonance units (RU) (streptavidin [2]; Streptavidin conc. 30 μM): 337 RU
- resonance units (RU) (streptavidin [2]; Streptavidin conc. 60 μM): 536 RU

Substance: DVDAWLDER
- Kd (streptavidin [3]; read-out: Kd): 940 ± 140 nM

Substance: DVEAWFDER
- Kd (streptavidin [3]): not measurable

Substance: DVEAWIADPAVHFTT [motif 4, D V E A W I A D P A V H F T T]
- Kd (streptavidin [2]): 200 nM
- resonance units (RU) (streptavidin [2]; Streptavidin conc. 30 nM): 68 RU
- resonance units (RU) (streptavidin [2]; Streptavidin conc. 60 nM): 171 RU
- resonance units (RU) (streptavidin [2]; Streptavidin conc. 125 nM): 280 RU
- resonance units (RU) (streptavidin [2]; Streptavidin conc. 250 nM): 384 RU
- resonance units (RU) (streptavidin [2]; Streptavidin conc. 500 nM): 478 RU
- resonance units (RU) (streptavidin [2]; Streptavidin conc. 1 μM): 560 RU
- resonance units (RU) (streptavidin [2]; Streptavidin conc. 2 μM): 644 RU

Substance: DVEAWL
- streptavidin binding (streptavidin [4]): sufficient streptavidin binding

Substance: DVEAWLDAR
- Kd (streptavidin [3]; read-out: Kd): 160 ± 30 nM

Substance: DVEAWLDER
- Kd (streptavidin [3]; read-out: Kd): 240 ± 40 nM
- streptavidin binding (streptavidin [4]): clearly better streptavidin binding

Substance: DVEAWLDERVPLVET [motif 3, D V E A W L D E R V P L V E T]
- Kd (streptavidin [2]): 84 nM
- resonance units (RU) (streptavidin [2]; Streptavidin conc. 15 nM): 98 RU
- resonance units (RU) (streptavidin [2]; Streptavidin conc. 30 nM): 242 RU
- resonance units (RU) (streptavidin [2]; Streptavidin conc. 60 nM): 461 RU
- resonance units (RU) (streptavidin [2]; Streptavidin conc. 125 nM): 613 RU
- resonance units (RU) (streptavidin [2]; Streptavidin conc. 250 nM): 704 RU
- resonance units (RU) (streptavidin [2]; Streptavidin conc. 500 nM): 786 RU
- resonance units (RU) (streptavidin [2]; Streptavidin conc. 2 μM): 946 RU
- resonance units (RU) (streptavidin [2]; Streptavidin conc. 4 μM): 983 RU
- applied protein recovered for the eluate (StrepTactin-Sepharose; StrepTactin-Sepharose): 71%
- applied protein recovered from the column (StrepTactin-Sepharose; StrepTactin-Sepharose): 84%
- percentage distribution of the protein, fraction D (StrepTactin-Sepharose; application of sample/passage): 3.0%
- percentage distribution of the protein, fraction E1 (StrepTactin-Sepharose; elution fraction 1, 2.5 mM desthiobiotin): 0.9%
- percentage distribution of the protein, fraction E2 (StrepTactin-Sepharose; elution fraction 2, 2.5 mM desthiobiotin): 45.9%
- percentage distribution of the protein, fraction E3 (StrepTactin-Sepharose; elution fraction 3, 2.5 mM desthiobiotin): 23.2%
- percentage distribution of the protein, fraction E4 (StrepTactin-Sepharose; elution fraction 4, 2.5 mM desthiobiotin): 1.0%
- percentage distribution of the protein, fraction E5 (StrepTactin-Sepharose; elution fraction 5, 2.5 mM desthiobiotin): 0.3%
- percentage distribution of the protein, Tot. (StrepTactin-Sepharose; sum of all fractions): 84.4%
- percentage distribution of the protein, fraction W1 (StrepTactin-Sepharose; washing fraction 1): 7.4%
- percentage distribution of the protein, fraction W2 (StrepTactin-Sepharose; washing fraction 2): 1.8%
- percentage distribution of the protein, fraction W3 (StrepTactin-Sepharose; washing fraction 3): 0.9%
- Kd (streptavidin [3]; read-out: Kd): 3.6 ± 0.6 nM
- percentage distribution of the protein, fraction D (streptavidin-Sepharose; application of sample/passage): 3.5%
- percentage distribution of the protein, fraction E1 (streptavidin-Sepharose; elution fraction 1, 2 mM biotin): 0.4%
- percentage distribution of the protein, fraction E2 (streptavidin-Sepharose; elution fraction 2, 2 mM biotin): 76.9%
- percentage distribution of the protein, fraction E3 (streptavidin-Sepharose; elution fraction 3, 2 mM biotin): 0.7%
- applied protein recovered for the eluate (streptavidin-Sepharose; streptavidin-Sepharose): 78%
- applied protein recovered from the column (streptavidin-Sepharose; streptavidin-Sepharose): 90%
- percentage distribution of the protein, Tot. (streptavidin-Sepharose; sum of all fractions): 89.6%
- percentage distribution of the protein, fraction W1 (streptavidin-Sepharose; washing fraction 1): 6.8%
- percentage distribution of the protein, fraction W2 (streptavidin-Sepharose; washing fraction 2): 1.0%
- percentage distribution of the protein, fraction W3 (streptavidin-Sepharose; washing fraction 3): 0.3%

Substance: DVEAWLGAR
- Kd (streptavidin [3]; read-out: Kd): 17 ± 4 nM

Substance: DVEAWLGARVPLVET
- Kd (streptavidin [3]; read-out: Kd): 4.1 ± 0.6 nM

Substance: DVEAWLGER
- Kd (streptavidin [3]; read-out: Kd): 17 ± 4 nM

Substance: DVEAWLGERVPLVET
- Kd (streptavidin [3]; read-out: Kd): 4.2 ± 0.7 nM

Substance: DVEAWRDER
- Kd (streptavidin [3]): not measurable

Substance: DVGAWLDER
- Kd (streptavidin [3]; read-out: Kd): 570 ± 90 nM

Substance: MDEKTTGWRGGIIVVEGLAGELEQLRARLEHHPQGQREP [SBP-tag]
- Kd (streptavidin [1]): 2.5 nM

Substance: WSHPQFEK [Strep-tag II]
- Kd (streptavidin [1]): 18000 to 72000 nM
